# Measurements reported in patent US4000281A, “Pyrazole derivatives” (priority 1971, dated 1976).
# Where two headings read alike, the source gives them in different places.
# Assays:
# [1] = test system: rhinovirus type 14 (strain 1059); test: Gradient plate plaque-reduction technique in HeLa cells, rhinovirus type 14; assay type: cell-based, human; design: key to ACTIVITY: +: active; -: inactive
# Protocol: (§1) A further series of tests was performed in which the inhibitory concentrations of 3-(4-pyridyl)-4-(2-hydroxyphenyl)-5-ethylpyrazole against various human types of rhinovirus were determined by the gradient plate plaque-reduction technique. Cultures of HeLa cancer cells were used of which two were prepared for each test. One culture was treated with the above compound which was applied in gradient while the other culture served as control. Both cultures were then infected with a human type of rhinovirus. The inhibitory concentration was determined by measuring the zone of inhibition on the cellsheet. Six types of rhinovirus were employed and the following results registered.
# [2] = test system: rhinovirus type 50 (strain A2 No.58); test: Gradient plate plaque-reduction technique in HeLa cells, rhinovirus type 50; assay type: cell-based, human; design: key: +: active
# Protocol: as §1
# Influenza viruses = test: Mouse-Survival Test (Test No. 1), Influenza virus strain not given; assay type: in vivo, mice; conditions: unidentified influenza virus, 360 h
# [3] = test system: rhinovirus type 39 (strain 209); test: Gradient plate plaque-reduction technique in HeLa cells, rhinovirus type 39; assay type: cell-based, human; design: key: +: active
# Protocol: as §1
# [4] = test system: rhinovirus type 44 (strain F01 3744); test: Gradient plate plaque-reduction technique in HeLa cells, rhinovirus type 44; assay type: cell-based, human; design: key to ACTIVITY: +: active; -: inactive
# Protocol: as §1
# [5] = test system: rhinovirus type 8 (prototype); test: Inhibition of rhinovirus cytopathogenic effect in human embryonic lung cultures, type 8; assay type: cell-based; conditions: 50 and 75 μgm/ml
# Protocol: (§2) Other tests were carried out to determine the inhibitory effect of 3-(4-pyridyl)-4-(2-hydroxyphenyl)-5-ethylpyrazole on various types of rhinovirus.
# (§3) In each test two cultures of human embryonic lung were prepared of which one was treated with the above compound while the other served as control. The cultures were then infected with a strain of rhinovirus. The compound was used in concentrations of 50 and 75 μgm/ml and was considered to be active if the cytopathogenic effect of the rhinovirus was reduced by at least 75% as compared to the control culture. This cytopathogenic effect was determined by counting the number of plaques formed by destroyed cells.
# (§4) Seven human types of rhinovirus were employed and the following results registered: […]
# Influenza Jap 305 = test: 48-Hour Mouse Test (Test No. 2), Influenza Jap 305; assay type: in vivo, mice; conditions: read-out: Log Reductions (EID50) as compared with controls
# [6] = test system: rhinovirus type 6 (SF1349); test: Inhibition of rhinovirus cytopathogenic effect in human embryonic lung cultures, type 6; assay type: cell-based; conditions: 50 and 75 μgm/ml
# Protocol: as §2, §3, §4
# [7] = test system: rhinovirus type 27 (strain Cor. 28); test: Gradient plate plaque-reduction technique in HeLa cells, rhinovirus type 27; assay type: cell-based, human; design: key to ACTIVITY: +: active
# Protocol: as §1
# Influenza Swine A = test: animal or person; assay type: in vivo, mice; conditions: in Mus musculus, 48 h, read-out: Log Reductions (EID50) as compared with controls
# Herpes = test: Herpes-induced keratitis in the rabbit eye; assay type: in vivo; conditions: local use, 2, 1 and 0.5%
# Protocol: Another test was carried out with this same compound in order to evaluate its action against Herpes-induced keratitis in the rabbit eye.
# [8] = test system: rhinovirus type 7 (SF1470); test: Inhibition of rhinovirus cytopathogenic effect in human embryonic lung cultures, type 7; assay type: cell-based; conditions: 50 and 75 μgm/ml
# Protocol: as §2, §3, §4
# [9] = test system: rhinovirus type 3 (prototype); test: Inhibition of rhinovirus cytopathogenic effect in human embryonic lung cultures, type 3; assay type: cell-based; conditions: 50 and 75 μgm/ml
# Protocol: as §2, §3, §4
# Influenza virus = assay type: in vivo, mice; conditions: for S.I. / Survival Percent / MDD (Mean Day of Death): intranasal 10% suspension, 25 multiples of LD50; for MDD (Mean Day of Death): virus alone 6.20
# [10] = test system: rhinovirus type 9 (prototype); test: Inhibition of rhinovirus cytopathogenic effect in human embryonic lung cultures, type 9; assay type: cell-based; conditions: 50 and 75 μgm/ml
# Protocol: as §2, §3, §4
# Influenza virus Jap 305 = test: Mouse-Survival Test (Test No. 1), Influenza Jap 305; assay type: in vivo, mice; conditions: for S.I.: significant if >1.24
# [11] = test system: rhinovirus type 14 (prototype); test: Inhibition of rhinovirus cytopathogenic effect in human embryonic lung cultures, type 14; assay type: cell-based; conditions: 50 and 75 μgm/ml
# Protocol: as §2, §3, §4
# Influenza PR8 = test: 48-Hour Mouse Test (Test No. 2), Influenza PR8; assay type: in vivo, mice; conditions: virus dose not ascertained, read-out: Log Reductions (EID50) as compared with controls
# Herpes Simplex [12] = test: microbe, parasite or virus in culture; assay type: cell-based, rabbit; conditions: Oryctolagus cuniculus, 96 h; dose of 250 μg; tissue first infected, compound in overlay; 50% considered significant; read-out: plaque-reduction
# Influenza virus Swine A = assay type: in vivo, mice; conditions: 500 mg/kg IP
# Herpes Simplex [13] = test: microbe, parasite or virus in culture; assay type: cell-based, rabbit; conditions: Oryctolagus cuniculus, 96 h; dose of 250 μg; virus pretreated with compound one hour; 50% considered significant; read-out: plaque-reduction
# [14] = test system: Influenza virus Maryland B; test: Mouse-Survival Test (Test No. 1), Influenza Maryland B; assay type: in vivo, mice; conditions: for Survival Percent: virus dose 79 multiples of LD50; for S.I.: virus dose 79 multiples of LD50, significant if >1.24
# [15] = test system: rhinovirus type 5 (prototype); test: Inhibition of rhinovirus cytopathogenic effect in human embryonic lung cultures, type 5; assay type: cell-based; conditions: 50 and 75 μgm/ml
# Protocol: as §2, §3, §4
# [16] = Enterovirus, read-out: MINIMUM INHIBITORY Concentration
# [17] = ip, read-out: Survival Index (S.I.)
# [18] = Jap 305, 5 mg/kg IP, virus dose 20 multiples of LD50
# [19] = Jap 305, 50 mg/kg IP, virus dose 32 multiples of LD50
# [20] = Jap 305, 50 mg/kg PO, virus dose 3.2 multiples of LD50
# [21] = Jap 305, 500 mg/kg IP, virus dose 32 multiples of LD50
# [22] = Jap 305, 500 mg/kg PO, virus dose 3.2 multiples of LD50
structure (smiles),measurement,setting,value
"CCc1[nH]nc(-c2ccncc2)c1-c1ccccc1O [Compound A, 3-(4-pyridyl)-4-(2-hydroxyphenyl)-5-ethylpyrazole]",ACTIVITY,[1],-
same,MIC,[1]; [16],30 µg/mL
same,ACTIVITY,[2],+
same,response vs control in vivo at 50 mg/kg,Influenza viruses; [17],137%
same,response vs control in vivo at 500 mg/kg,Influenza viruses; [17],171%
same,responders at 50 mg/kg,"Influenza viruses; ip, read-out: Survival Percent",0%
same,responders at 500 mg/kg,"Influenza viruses; ip, read-out: Survival Percent",37.5%
same,response vs control in vivo at 500 mg/kg,"Influenza viruses; po, read-out: Survival Index (S.I.)",171%
same,responders at 500 mg/kg,"Influenza viruses; po, read-out: Survival Percent",33.3%
same,ACTIVITY,[3],+
same,ACTIVITY,[4],-
same,MIC,[4]; [16],30 µg/mL
same,ACTIVITY,[5],+ (active)
same,log reduction at 50 mg/kg,Influenza Jap 305; ip,1.53
same,log reduction at 5 mg/kg,Influenza Jap 305; po,2
same,log reduction at 50 mg/kg,Influenza Jap 305; po,2.7
same,log reduction at 500 mg/kg,Influenza Jap 305; po,2.5
same,ACTIVITY,[6],+ (active)
same,ACTIVITY,[7],+
same,MIC,[7]; [16],15 to 16 µg/mL
same,log reduction at 50 mg/kg,Influenza Swine A; ip,1
same,log reduction at 500 mg/kg,Influenza Swine A; ip,1.8
same,log reduction at 5 mg/kg,Influenza Swine A; po,1.1
same,log reduction at 50 mg/kg,Influenza Swine A; po,1.4
same,formation of geographic keratitic lesions as compared to infected control animals,Herpes,inhibited the formation of geographic keratitic lesions
same,ACTIVITY,[8],+ (active)
same,ACTIVITY,[9],+ (active)
same,S.I.,Influenza virus; 30 min. before infection,1.90
same,Survival Percent,Influenza virus; 30 min. before infection,40%
same,MDD (Mean Day of Death),Influenza virus; 30 min. before infection,11.80 days
same,S.I.,Influenza virus; 2 hr. before infection,2.07
same,Survival Percent,Influenza virus; 2 hr. before infection,70%
same,MDD (Mean Day of Death),Influenza virus; 2 hr. before infection,12.80 days
same,S.I.,Influenza virus; 4 hr. before infection,1.88
same,Survival Percent,Influenza virus; 4 hr. before infection,60%
same,MDD (Mean Day of Death),Influenza virus; 4 hr. before infection,11.70 days
same,S.I.,Influenza virus; 6 hr. before infection,1.90
same,Survival Percent,Influenza virus; 6 hr. before infection,50%
same,MDD (Mean Day of Death),Influenza virus; 6 hr. before infection,11.80 days
same,persistence of the effect: differences between times of administration,"Influenza virus; mouse, in vivo",no significant differences
same,protective effect,"Influenza virus; mouse, in vivo",definite protective effect at all times of administration
same,"survival period of the treated animals that did die, relative to controls","Influenza virus; mouse, in vivo",approximately twice that of the controls
same,ACTIVITY,[10],+ (active)
same,Survival Percent,Influenza virus Jap 305; [18],20%
same,S.I.,Influenza virus Jap 305; [18],1.34
same,Survival Percent,Influenza virus Jap 305; [19],10%
same,S.I.,Influenza virus Jap 305; [19],1.34
same,Survival Percent,Influenza virus Jap 305; [20],60%
same,S.I.,Influenza virus Jap 305; [20],1.43
same,Survival Percent,Influenza virus Jap 305; [21],60%
same,S.I.,Influenza virus Jap 305; [21],2.04
same,Survival Percent,Influenza virus Jap 305; [22],66%
same,S.I.,Influenza virus Jap 305; [22],1.43
same,ACTIVITY,[11],+ (active)
same,log reduction at 5 mg/kg,"Influenza PR8; PR8, 5 mg/kg IP",1.41
same,log reduction at 50 mg/kg,"Influenza PR8; PR8, 50 mg/kg IP",1.69
same,log reduction at 50 mg/kg,"Influenza PR8; PR8, 50 mg/kg PO",1.21
same,log reduction at 500 mg/kg,"Influenza PR8; PR8, 500 mg/kg IP",1.87
same,log reduction at 500 mg/kg,"Influenza PR8; PR8, 500 mg/kg PO",1.07
same,inhibition at 250 µg,Herpes Simplex [12],100%
same,Survival Percent,Influenza virus Swine A; virus dose 14 multiples of LD50,50%
same,S.I.,"Influenza virus Swine A; virus dose 14 multiples of LD50, significant if >1.24",1.52
same,inhibition at 250 µg,Herpes Simplex [13],60%
same,Survival Percent,[14]; 500 mg/kg IP,10%
same,S.I.,[14]; 500 mg/kg IP,1.47
same,Survival Percent,[14]; 500 mg/kg PO,12%
same,S.I.,[14]; 500 mg/kg PO,1.52
same,ACTIVITY,[15],+ (active)
